Test results as given in patent US10428060B2, “PI-kinase inhibitors with anti-infective activity” (The Board of Trustees of the Leland Stanford Junior …, priority 2011, dated 2019).
pEC50, pIC50: −log10 of the molar value.

Legend:
PI3K p110g = biological target: T1, PI3K p110g (Homo sapiens, UniProt P48736); assay: PI3K p110g kinase assay; type: biochemical
T1 construct: purchased Millipore

PI4KIIIB = biological target: T2, PI4KIIIB (Bos taurus, UniProt O02810); assay: PI4KIIIB kinase assay; type: biochemical, bovine
T2 construct: made in house; host or cells: COS-7 cells, transient transfection, anti-HA immunoprecipitate on protein G Sepharose beads

HRV = assay: Rhinovirus antiviral assay; type: cell-based; conditions: Human rhinovirus sp.
HCV genotype 2a = assay: microbe, parasite or virus in culture; type: cell-based; conditions: Hepatitis C virus, Huh7.5, read-out: HCV2a EC50
PI4KIIIA = biological target: T3, PI4KIIIA (Homo sapiens, UniProt P42356); assay: PI4KIIIA kinase assay; type: biochemical
T3 construct: made in house; host or cells: COS-7 cells, transient transfection, anti-HA immunoprecipitate on protein G Sepharose beads
Procedure: In the assays described here, p110α-p85 complex and p110γ were acquired from Millipore. Assays were performed with Lα-phosphatidylinositol (Avanti) as described in Knight et al. Nat Protoc. 2007; 2 (10):2459-66. Inhibitor series were prepared 10% DMSO as 5× stocks for the assay. Assays of HsVps34 were performed as described in Knight et al, except that the final assay buffer composition used was changed to 20 mM HEPES 7.5, 100 mM NaCl, 3 mM MgCl, 1 mg/mL PI and 44 nM hvps34 was used in the assay. […] COS-7 cells were cultured in 10 cm dishes and transfected at 70% confluence with 10 μg of plasmid DNA (HA-tagged bovine PI4KIIIβ, HA-tagged human PI4KIIIα) using Lipofectamine 2000 and 5 ml Opti-MEM following the manufacturer's instructions. After 5 hours the transfection medium was replaced with 10 ml complete DMEM. 36 hrs post transfection, cells were washed once with 5 ml PBS (pH 7.4) and lysed in 1 ml of lysis buffer (1) on ice. Lysates were collected by scraping and after 15 min they were centrifuged at 13,000 rpm for 10 min. To the lysates was added 200 μl of protein G Sepharose 4 fast flow beads that were prewashed with PBS and lysis buffer and 2 μg of anti-HA antibody. The tubes were then incubated overnight at 4 degrees C. in a tube rotator. The Sepharose beads in the lysate were washed twice with 150 mM NaCl in RIPA buffer, twice with RIPA buffer and once with kinase buffer (50 mM Tris/HCl, pH 7.5, 20 mM MgCl2, 1 mM EGTA, 1 mM PtdIns, 0.4% Triton X-100, 0.5 mg/mL BSA) and finally the beads were resuspended in 200 μL kinase buffer. Kinase reactions were run in a mixture of 45 μL of PI buffer (1 mM PI in kinase buffer), 10 μL of immunoprecipitated beads, 2 µL of inhibitors (dissolved and diluted in DMSO) or DMSO and 5 μL of [γ-^32P]-ATP (1 mM and 2 μCi/tube). The immunoprecipitates in PI buffer were pre-incubated with the drugs for 20 min prior the initiation of kinase reaction by adding ATP and the reactions were carried out for 30 min in 15 ml polypropolyne tubes. […] Samples were counted in a scintillation beta counter after adding 5 ml of Instafluor (Perkin-Elmer). […]

T2 sequence (O02810 whole entry): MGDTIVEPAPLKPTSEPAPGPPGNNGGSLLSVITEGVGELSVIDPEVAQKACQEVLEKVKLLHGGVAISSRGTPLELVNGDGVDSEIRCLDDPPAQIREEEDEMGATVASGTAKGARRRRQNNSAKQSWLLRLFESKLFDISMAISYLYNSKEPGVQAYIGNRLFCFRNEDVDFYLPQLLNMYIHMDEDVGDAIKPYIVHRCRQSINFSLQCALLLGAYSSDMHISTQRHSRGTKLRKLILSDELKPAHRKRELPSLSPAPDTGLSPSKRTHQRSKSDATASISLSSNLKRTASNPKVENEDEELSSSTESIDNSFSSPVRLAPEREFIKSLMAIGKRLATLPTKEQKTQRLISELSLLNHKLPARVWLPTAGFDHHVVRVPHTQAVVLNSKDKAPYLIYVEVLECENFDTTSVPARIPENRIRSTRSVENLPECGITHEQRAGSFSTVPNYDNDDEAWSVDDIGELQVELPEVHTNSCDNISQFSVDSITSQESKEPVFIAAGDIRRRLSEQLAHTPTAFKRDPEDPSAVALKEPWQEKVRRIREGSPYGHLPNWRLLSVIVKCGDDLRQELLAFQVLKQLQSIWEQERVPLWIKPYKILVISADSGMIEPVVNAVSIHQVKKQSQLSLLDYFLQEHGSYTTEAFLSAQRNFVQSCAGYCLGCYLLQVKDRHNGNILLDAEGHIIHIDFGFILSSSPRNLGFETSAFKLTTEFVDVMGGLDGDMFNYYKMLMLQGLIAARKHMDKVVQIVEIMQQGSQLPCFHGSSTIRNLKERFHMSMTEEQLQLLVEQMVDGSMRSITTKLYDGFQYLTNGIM
T3 sequence (P42356 whole entry): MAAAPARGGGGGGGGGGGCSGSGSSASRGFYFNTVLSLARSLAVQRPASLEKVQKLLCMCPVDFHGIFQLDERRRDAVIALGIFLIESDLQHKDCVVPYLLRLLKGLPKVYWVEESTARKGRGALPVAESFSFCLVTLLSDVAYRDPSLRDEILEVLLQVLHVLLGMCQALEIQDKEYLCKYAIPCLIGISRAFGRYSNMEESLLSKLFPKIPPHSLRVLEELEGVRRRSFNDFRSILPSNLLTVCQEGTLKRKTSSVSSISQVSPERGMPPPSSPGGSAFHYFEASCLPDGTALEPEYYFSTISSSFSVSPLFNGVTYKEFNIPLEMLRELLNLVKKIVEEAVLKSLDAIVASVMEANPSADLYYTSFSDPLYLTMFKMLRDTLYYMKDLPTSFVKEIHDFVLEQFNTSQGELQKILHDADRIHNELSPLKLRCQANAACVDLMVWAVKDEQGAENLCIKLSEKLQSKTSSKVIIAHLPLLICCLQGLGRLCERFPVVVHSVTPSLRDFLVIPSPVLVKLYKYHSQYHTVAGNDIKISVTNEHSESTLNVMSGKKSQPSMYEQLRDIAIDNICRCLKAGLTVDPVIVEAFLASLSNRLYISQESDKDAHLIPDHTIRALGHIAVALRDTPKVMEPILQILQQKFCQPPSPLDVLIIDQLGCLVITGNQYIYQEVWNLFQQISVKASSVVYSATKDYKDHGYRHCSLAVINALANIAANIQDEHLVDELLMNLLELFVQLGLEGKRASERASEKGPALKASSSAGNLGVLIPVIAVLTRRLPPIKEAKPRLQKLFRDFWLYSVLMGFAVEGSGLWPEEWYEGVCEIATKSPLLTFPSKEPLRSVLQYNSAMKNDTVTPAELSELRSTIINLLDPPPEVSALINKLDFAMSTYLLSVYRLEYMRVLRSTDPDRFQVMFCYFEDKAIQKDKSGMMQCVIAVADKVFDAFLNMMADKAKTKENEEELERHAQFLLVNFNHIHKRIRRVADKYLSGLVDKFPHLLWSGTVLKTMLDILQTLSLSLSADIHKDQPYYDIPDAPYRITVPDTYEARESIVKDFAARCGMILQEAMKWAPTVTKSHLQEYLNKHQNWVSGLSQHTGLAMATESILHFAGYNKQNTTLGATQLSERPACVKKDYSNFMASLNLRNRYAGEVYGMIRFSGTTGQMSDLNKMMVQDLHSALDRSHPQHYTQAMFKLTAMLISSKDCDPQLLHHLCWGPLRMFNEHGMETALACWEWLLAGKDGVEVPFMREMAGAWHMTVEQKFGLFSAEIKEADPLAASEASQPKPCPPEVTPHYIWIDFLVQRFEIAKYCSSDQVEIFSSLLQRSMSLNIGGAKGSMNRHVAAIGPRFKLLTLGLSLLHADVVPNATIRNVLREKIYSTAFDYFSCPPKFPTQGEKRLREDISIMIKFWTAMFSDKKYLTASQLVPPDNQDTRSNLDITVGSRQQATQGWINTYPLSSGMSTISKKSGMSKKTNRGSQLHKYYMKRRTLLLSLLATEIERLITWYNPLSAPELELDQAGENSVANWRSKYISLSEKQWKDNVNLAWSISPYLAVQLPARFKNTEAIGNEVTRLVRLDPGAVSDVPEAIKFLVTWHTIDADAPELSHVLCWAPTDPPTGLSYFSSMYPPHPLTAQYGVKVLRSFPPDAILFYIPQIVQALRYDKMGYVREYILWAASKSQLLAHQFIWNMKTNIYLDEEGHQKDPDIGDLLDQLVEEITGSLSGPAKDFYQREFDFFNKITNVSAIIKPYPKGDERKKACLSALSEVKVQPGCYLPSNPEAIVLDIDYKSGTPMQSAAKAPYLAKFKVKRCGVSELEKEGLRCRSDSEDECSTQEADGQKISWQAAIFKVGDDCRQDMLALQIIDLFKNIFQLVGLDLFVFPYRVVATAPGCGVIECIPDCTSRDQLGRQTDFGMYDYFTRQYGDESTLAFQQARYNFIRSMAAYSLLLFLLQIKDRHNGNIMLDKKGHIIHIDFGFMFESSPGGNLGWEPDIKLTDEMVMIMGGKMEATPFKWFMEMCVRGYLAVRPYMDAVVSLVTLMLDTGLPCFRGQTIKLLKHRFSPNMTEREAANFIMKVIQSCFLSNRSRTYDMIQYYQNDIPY
T1 sequence (P48736 whole entry): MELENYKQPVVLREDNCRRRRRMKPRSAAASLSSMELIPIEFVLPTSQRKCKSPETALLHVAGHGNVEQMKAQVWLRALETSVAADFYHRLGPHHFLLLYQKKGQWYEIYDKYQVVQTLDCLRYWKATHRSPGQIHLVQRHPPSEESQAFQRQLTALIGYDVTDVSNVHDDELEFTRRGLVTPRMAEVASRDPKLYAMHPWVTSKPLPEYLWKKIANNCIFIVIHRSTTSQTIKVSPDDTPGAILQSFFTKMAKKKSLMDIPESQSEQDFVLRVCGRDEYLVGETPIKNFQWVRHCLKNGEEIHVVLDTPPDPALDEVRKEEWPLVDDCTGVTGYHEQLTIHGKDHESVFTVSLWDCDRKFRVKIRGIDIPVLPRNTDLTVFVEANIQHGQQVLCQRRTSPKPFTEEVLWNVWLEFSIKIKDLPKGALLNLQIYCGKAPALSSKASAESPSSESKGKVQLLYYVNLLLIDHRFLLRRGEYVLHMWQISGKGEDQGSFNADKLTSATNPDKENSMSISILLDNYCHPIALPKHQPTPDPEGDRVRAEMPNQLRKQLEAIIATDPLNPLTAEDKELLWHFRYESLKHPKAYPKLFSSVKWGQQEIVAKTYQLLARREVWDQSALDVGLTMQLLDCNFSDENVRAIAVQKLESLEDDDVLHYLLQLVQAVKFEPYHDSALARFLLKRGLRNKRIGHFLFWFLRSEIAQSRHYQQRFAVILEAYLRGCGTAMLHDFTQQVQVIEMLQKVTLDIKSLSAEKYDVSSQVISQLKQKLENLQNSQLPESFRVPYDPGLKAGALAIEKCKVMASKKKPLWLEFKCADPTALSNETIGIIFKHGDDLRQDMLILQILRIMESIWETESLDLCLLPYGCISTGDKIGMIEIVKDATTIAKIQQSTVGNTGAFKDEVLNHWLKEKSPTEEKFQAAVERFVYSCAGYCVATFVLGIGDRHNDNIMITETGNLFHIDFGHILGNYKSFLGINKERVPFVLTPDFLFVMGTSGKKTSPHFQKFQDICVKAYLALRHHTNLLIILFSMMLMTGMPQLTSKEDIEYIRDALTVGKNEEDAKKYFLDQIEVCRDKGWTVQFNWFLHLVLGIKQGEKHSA

## COc1ncc(-c2sc(NC(=O)CC3CCOCC3)nc2C)cc1S(=O)(=O)NC1CCCC(O)C1 (centres unmarked) [Compound S-263]
PI3K p110g
  pIC50: 5.00 to 6.00
PI4KIIIB
  pIC50: > 7.00
HRV
  pEC50: 5.00 to 6.00
HCV genotype 2a
  pEC50: 7.00 to 9.00
PI4KIIIA
  pIC50: > 7.00
